Common to all, as to assay: biochemical
Common to all, as to type: biochemical

Test [1] deals with 363 human kinases (including Aurora A/B/C) (Homo sapiens, UniProt P15056). The following applies: BRAF, [ATP] 10 µM; for remaining activity at 0.5 µM / remaining activity at 0.1 µM: read-out: % Enzyme Activity (relative to DMSO controls); for remaining activity at 0.1 µM: 100 nM.
From the text: (§1) However, the Aurora A/B selectivity ratios derived from our in vitro and in vivo data can be compared to prioritize inhibitors.
Test [2] has as its target T1, 363 human kinases (including Aurora A/B/C) (Homo sapiens, UniProt Q8IWQ3).
T1 sequence (Q8IWQ3 1-736): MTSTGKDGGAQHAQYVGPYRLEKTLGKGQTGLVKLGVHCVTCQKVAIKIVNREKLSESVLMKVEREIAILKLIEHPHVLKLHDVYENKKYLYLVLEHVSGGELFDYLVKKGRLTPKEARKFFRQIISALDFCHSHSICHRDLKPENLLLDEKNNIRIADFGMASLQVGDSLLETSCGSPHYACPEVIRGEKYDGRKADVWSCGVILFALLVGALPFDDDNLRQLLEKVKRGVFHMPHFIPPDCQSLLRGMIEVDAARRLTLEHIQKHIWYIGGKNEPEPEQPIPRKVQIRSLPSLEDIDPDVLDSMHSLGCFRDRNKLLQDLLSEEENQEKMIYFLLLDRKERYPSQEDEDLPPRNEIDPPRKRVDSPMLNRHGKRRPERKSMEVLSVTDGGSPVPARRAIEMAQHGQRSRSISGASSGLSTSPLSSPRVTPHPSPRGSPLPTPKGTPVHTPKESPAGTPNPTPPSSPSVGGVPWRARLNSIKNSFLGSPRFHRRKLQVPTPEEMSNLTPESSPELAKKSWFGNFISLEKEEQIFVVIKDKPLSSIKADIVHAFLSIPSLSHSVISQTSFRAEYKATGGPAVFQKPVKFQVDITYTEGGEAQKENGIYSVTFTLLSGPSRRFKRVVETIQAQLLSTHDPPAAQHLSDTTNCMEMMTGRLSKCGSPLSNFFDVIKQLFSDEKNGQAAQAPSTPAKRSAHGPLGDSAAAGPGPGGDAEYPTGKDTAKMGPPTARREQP
The following applies: BRSK2, [ATP] 50 µM; for remaining activity at 0.5 µM / remaining activity at 0.1 µM: read-out: % Enzyme Activity (relative to DMSO controls); for remaining activity at 0.1 µM: 100 nM.
From the text: as §1

Test [3] addresses 363 human kinases (including Aurora A/B/C) (Homo sapiens, UniProt O14578). The following applies: STK21/CIT; for remaining activity at 0.5 µM / remaining activity at 0.1 µM: read-out: % Enzyme Activity (relative to DMSO controls); for remaining activity at 0.1 µM: 100 nM.
From the text: as §1
Test [4] deals with T2, 363 human kinases (including Aurora A/B/C) (Homo sapiens, UniProt P51956).
T2 sequence (P51956 1-506): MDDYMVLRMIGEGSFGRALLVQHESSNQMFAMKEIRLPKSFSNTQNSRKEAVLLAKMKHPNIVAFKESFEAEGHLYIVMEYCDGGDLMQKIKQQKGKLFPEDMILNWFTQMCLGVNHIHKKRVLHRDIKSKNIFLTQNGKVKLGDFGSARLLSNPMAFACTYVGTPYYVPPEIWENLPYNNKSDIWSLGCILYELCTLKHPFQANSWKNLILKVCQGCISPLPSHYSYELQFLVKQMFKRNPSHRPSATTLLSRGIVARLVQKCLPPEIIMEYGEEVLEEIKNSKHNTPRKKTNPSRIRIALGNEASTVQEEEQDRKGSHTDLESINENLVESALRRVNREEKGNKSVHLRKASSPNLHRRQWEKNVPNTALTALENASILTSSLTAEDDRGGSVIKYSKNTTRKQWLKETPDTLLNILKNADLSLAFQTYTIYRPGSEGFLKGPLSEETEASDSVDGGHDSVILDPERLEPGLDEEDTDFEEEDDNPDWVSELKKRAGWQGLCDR
As to conditions: NEK3; for remaining activity at 0.5 µM / remaining activity at 0.1 µM: read-out: % Enzyme Activity (relative to DMSO controls); for remaining activity at 0.1 µM: 100 nM.
From the text: as §1

In test [5] the target is 363 human kinases (including Aurora A/B/C) (Homo sapiens, UniProt Q52WX2). The following applies: SBK1; for remaining activity at 0.5 µM / remaining activity at 0.1 µM: read-out: % Enzyme Activity (relative to DMSO controls); for remaining activity at 0.1 µM: 100 nM.
From the text: as §1
Test [6] has as its target 363 human kinases (including Aurora A/B/C) (Homo sapiens, UniProt Q14289). The following applies: PYK2; for remaining activity at 0.5 µM / remaining activity at 0.1 µM: read-out: % Enzyme Activity (relative to DMSO controls); for remaining activity at 0.1 µM: 100 nM.
From the text: as §1
Test [7] has as its target T3, 363 human kinases (including Aurora A/B/C) (Homo sapiens, UniProt P29323).
T3 sequence (P29323 19-1055): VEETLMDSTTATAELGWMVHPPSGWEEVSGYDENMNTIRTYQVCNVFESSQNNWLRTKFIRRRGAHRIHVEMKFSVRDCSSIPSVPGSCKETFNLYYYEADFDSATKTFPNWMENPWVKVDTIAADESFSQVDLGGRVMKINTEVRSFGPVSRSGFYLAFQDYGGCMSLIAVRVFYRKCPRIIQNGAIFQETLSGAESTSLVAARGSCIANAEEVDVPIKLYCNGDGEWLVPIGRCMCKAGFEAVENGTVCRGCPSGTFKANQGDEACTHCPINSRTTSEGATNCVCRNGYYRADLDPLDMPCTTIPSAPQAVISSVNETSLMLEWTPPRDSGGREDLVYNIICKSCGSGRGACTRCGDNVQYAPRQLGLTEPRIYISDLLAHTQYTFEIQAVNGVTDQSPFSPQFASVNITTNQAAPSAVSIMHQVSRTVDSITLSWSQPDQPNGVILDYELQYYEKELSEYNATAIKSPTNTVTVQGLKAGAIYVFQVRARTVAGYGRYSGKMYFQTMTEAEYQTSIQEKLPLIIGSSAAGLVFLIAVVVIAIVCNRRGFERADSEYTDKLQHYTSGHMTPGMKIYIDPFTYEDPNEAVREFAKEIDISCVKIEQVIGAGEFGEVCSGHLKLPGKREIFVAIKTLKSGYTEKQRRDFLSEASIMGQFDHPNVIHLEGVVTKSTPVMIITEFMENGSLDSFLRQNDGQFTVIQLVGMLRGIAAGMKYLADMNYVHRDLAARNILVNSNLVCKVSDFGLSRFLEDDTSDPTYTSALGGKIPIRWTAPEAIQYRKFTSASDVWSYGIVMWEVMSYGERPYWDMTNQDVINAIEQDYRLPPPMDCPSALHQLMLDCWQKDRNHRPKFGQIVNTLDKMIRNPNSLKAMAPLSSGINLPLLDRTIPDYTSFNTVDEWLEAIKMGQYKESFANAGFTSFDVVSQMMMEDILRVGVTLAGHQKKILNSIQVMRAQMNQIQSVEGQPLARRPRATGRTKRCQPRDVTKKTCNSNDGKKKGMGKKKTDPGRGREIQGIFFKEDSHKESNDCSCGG
The following applies: EPHB2, [ATP] 30 µM; for remaining activity at 0.5 µM / remaining activity at 0.1 µM: read-out: % Enzyme Activity (relative to DMSO controls); for remaining activity at 0.1 µM: 100 nM.
From the text: as §1

Test [8] deals with 363 human kinases (including Aurora A/B/C) (Homo sapiens, UniProt Q9H4B4). The following applies: PLK3; for remaining activity at 0.5 µM / remaining activity at 0.1 µM: read-out: % Enzyme Activity (relative to DMSO controls); for remaining activity at 0.1 µM: 100 nM.
From the text: as §1
The target in test [9] is 363 human kinases (including Aurora A/B/C) (Homo sapiens, UniProt Q9NYL2). As to conditions: ZAK/MLTK; for remaining activity at 0.5 µM / remaining activity at 0.1 µM: read-out: % Enzyme Activity (relative to DMSO controls); for remaining activity at 0.1 µM: 100 nM.
From the text: as §1

Molecules are shown by their SMILES.

Sequence of 363 human kinases (including Aurora A/B/C) (Homo sapiens, UniProt Q9H4B4) (Q9H4B4 whole entry): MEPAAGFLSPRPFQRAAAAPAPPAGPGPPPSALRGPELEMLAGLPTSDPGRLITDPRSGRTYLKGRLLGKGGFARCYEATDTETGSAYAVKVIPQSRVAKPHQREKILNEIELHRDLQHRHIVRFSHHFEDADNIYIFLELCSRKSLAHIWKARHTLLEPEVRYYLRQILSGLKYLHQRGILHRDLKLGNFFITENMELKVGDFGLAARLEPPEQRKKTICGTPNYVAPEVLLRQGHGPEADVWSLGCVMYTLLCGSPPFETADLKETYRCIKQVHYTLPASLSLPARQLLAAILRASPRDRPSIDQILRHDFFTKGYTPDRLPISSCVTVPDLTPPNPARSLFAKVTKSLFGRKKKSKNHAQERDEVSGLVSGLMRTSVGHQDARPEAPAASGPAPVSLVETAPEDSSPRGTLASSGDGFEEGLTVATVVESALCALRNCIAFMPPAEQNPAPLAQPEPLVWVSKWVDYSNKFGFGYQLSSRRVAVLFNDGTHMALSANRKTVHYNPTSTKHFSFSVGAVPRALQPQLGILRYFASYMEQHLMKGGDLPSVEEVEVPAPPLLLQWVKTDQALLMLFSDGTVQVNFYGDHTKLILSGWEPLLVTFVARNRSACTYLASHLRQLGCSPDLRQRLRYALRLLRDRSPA
Sequence of 363 human kinases (including Aurora A/B/C) (Homo sapiens, UniProt P15056) (P15056 whole entry): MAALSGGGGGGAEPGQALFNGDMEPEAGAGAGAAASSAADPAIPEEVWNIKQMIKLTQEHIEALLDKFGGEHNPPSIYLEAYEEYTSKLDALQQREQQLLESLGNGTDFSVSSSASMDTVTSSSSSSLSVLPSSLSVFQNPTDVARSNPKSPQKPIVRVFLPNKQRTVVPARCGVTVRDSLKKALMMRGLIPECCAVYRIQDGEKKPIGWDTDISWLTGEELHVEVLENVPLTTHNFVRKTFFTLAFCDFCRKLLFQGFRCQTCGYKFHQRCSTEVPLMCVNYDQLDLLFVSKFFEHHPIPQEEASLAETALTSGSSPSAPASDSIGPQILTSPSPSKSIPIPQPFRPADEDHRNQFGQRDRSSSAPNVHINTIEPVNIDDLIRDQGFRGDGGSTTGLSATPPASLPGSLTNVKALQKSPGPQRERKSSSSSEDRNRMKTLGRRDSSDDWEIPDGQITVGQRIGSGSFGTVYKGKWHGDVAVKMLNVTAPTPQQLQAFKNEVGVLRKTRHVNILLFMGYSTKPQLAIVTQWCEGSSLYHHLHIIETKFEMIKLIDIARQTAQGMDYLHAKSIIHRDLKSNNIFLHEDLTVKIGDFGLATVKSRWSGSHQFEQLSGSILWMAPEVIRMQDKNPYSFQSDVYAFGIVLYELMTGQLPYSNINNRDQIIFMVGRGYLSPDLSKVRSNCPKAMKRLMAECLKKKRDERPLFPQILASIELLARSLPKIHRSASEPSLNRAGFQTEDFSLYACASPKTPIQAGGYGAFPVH
Sequence of 363 human kinases (including Aurora A/B/C) (Homo sapiens, UniProt Q9NYL2) (Q9NYL2 whole entry): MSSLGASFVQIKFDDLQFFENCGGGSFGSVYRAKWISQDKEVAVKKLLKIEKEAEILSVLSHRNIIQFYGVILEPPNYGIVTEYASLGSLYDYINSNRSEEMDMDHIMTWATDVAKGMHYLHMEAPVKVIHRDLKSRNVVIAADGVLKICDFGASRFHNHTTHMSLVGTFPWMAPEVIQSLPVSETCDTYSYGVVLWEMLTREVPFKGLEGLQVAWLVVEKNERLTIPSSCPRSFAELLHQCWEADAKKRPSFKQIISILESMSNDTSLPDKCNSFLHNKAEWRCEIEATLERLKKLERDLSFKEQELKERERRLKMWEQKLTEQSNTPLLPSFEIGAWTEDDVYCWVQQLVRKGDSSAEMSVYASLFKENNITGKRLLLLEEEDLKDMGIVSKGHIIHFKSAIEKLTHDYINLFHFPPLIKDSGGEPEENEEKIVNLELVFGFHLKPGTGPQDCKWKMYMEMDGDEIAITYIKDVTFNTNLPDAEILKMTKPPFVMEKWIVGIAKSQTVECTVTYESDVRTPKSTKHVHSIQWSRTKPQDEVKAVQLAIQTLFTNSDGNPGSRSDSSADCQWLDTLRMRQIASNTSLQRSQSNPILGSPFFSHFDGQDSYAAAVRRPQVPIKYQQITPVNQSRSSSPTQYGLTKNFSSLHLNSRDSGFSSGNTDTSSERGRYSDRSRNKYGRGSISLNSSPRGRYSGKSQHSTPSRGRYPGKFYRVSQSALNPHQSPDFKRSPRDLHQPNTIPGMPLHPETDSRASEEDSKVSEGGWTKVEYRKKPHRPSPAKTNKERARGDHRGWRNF
Sequence of 363 human kinases (including Aurora A/B/C) (Homo sapiens, UniProt Q14289) (Q14289 whole entry): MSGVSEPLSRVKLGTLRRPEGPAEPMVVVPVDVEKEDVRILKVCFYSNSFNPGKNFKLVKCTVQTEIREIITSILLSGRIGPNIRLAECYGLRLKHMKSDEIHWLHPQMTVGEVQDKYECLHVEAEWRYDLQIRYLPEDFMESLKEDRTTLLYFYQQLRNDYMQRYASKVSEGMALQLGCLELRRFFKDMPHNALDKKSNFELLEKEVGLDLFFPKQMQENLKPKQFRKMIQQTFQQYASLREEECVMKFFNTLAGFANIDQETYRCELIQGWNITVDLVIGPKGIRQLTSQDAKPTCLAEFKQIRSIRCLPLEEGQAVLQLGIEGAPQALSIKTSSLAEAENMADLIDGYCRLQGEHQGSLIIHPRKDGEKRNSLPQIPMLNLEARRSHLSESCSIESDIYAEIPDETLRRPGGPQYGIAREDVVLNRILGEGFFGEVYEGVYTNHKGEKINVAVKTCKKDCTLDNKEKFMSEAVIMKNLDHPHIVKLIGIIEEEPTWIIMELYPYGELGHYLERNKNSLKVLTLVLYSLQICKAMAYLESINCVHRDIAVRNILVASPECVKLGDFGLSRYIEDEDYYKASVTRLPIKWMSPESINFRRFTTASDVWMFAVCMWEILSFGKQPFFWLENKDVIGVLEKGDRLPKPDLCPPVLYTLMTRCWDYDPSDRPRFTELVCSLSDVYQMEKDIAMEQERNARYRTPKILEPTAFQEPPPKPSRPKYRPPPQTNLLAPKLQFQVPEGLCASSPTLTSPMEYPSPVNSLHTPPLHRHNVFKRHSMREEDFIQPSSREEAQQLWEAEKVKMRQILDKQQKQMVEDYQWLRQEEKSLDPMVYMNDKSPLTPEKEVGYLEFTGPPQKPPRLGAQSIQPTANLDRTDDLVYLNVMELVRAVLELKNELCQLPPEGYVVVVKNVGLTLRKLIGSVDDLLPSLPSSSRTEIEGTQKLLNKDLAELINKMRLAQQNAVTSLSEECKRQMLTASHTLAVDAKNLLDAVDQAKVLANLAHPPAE
Sequence of 363 human kinases (including Aurora A/B/C) (Homo sapiens, UniProt Q52WX2) (Q52WX2 whole entry): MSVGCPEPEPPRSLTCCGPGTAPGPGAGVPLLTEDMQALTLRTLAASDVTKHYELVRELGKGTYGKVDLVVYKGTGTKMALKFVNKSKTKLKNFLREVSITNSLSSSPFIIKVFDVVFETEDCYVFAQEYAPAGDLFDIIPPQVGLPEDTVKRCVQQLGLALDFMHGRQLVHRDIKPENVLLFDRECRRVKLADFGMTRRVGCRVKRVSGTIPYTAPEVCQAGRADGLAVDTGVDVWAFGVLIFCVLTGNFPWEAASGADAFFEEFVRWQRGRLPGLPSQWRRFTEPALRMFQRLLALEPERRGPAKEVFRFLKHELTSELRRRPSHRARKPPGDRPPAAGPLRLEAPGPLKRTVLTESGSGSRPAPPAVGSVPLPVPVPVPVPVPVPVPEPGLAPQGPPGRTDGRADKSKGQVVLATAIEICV

Take `O=C(c1cccc(Cl)c1F)N1CCN(Cc2cccc(Nc3nccs3)n2)CC1` [MK-8745]: the “% Enzyme Activity (relative to DMSO controls)” value is 94.88% in test [1] (500 nM); 107.67% in test [2] (500 nM); 101.37% in test [3] (500 nM); 99.14% in test [4] (500 nM); 95.86% in test [5] (500 nM); 80.17% in test [6] (500 nM). In addition, the “% Enzyme Activity (relative to DMSO controls)” value is reported as 80.85% in test [7] (500 nM), 99.37% in [8] (500 nM) and 91.42% in test [9] (500 nM). The remaining activity at 0.5 µM in test [1] (500 nM) stood at 96.1%; in test [2] (500 nM) it was 109%; in test [3] (500 nM), 104%; in [4] (500 nM), 100%; in test [5] (500 nM) it was 96.4%; in [6] (500 nM) it was 83.5%. Moreover, the remaining activity at 0.5 µM worked out at 81.8% in test [7] (500 nM), 102% in test [8] (500 nM) and 91.9% in test [9] (500 nM).
With `CCn1cc(-c2ccnc3[nH]c(-c4cccc(CN(C)C)c4)cc23)c(-c2ccc(NC(=O)N(C)C)cc2)n1` [GSK1070916], the remaining activity at 0.1 µM was found to be 97.1% in [1]; 88.4% in test [2]; 100% in test [3]; 97.7% in [4]; 101% in test [5]; 95.3% in test [6]. Moreover, the remaining activity at 0.1 µM in test [7] was determined as 97.1%; in test [8], 101%; in [9], 101%.
`O=C(O)[C@]1(Cc2cccc(Nc3nccs3)n2)CC[C@@H](Oc2cccc(Cl)c2F)CC1` [MK-5108]: the remaining activity at 0.1 µM stood at 103% in [1]; 92.7% in [2]; 115% in [3]; 99.3% in test [4]; 102% in test [5]; 41.2% in test [6]. In addition, the remaining activity at 0.1 µM in test [7] was 59.4%; in test [8], 103%; in test [9] it was 126%. For the same molecule, the remaining activity at 0.5 µM stood at 94.7% in test [1] (500 nM); 78.7% in test [2] (500 nM); 102% in test [3] (500 nM); 101% in test [4] (500 nM); 96.3% in [5] (500 nM); 16.4% in test [6] (500 nM). The remaining activity at 0.5 µM is 32% in test [7] (500 nM), 104% in test [8] (500 nM) and 97.9% in test [9] (500 nM).

These data come from publication PMC4685510, “A Cell Biologist’s Field Guide to Aurora Kinase Inhibitors” (Frontiers in Oncology, 2015).
